Patent publication US20150190460A1, “OSTEOPONTIN PEPTIDE FRAGMENTS FOR USE IN SUPPRESSION OR PREVENTION OF TUMOR GROWTH” (FORSYTH DENTAL INFIRMARY FOR CHILDREN (D/B/A THE FORSYTH …, priority 2012, published 2015)

What was measured:
[1] = system: 275-3-2 murine ras-transformed fibroblast cells; assay: Oral administration of osteopontin to 129B6F1 tumor-bearing mice; assay type: in vivo; details: for size of the tumor: FIG. 1b
Procedure: A bovine OPN preparation (Lacprodan®, Arla Foods Ingredients, Viby, Denmark) was dissolved in deionized water, filtered, and administered at final concentrations of 0.03, 0.12, or 0.3 mg/ml to 129B6F1 tumor-bearing mice starting either on the day of tumor cell inoculation (Day 0) or five days later (Day 5). The mice were initially inoculated with 5×10^4 mycoplasma-free 275-3-2 murine ras-transformed fibroblast cells (see Wu 2000). Tumor size was measured with calipers and monitored until the tumors reached 20% of the body weight of the animals, at which time the mice were sacrificed and tissue/plasma samples collected. Statistical significance was calculated using one-way ANOVA with Bonferroni post-test.

[2] = Competition ELISA for bovine OPN in plasma of mice fed with OPN; assay type: in vivo; details: mice fed 50 mg of OPN over 10-30 minutes
Procedure: In a previous experiment the inventors have detected osteopontin peptides in the plasma of mice fed with OPN using a competition ELISA for bovine OPN: the assay was designed to detect any peptides that can block interaction of intact bovine OPN with the polyclonal antibody used. Plasma from mice fed 50 mg of OPN over 10-30 minutes was analyzed using this ELISA. Peak antibody reactivity was detected at 1-4 hours after feeding, with the highest mean levels being close to 5000 ng/ml.

Substance: OPN: bovine OPN preparation (Lacprodan®, Arla Foods Ingredients, Viby, Denmark)
- size of the tumor ([1]; oral OPN 0.12 mg/ml started five days after tumor cell injection, at 15 days): statistically significant decrease
- size of the tumor ([1]; oral OPN 0.3 mg/ml started five days after tumor cell injection, at 17 days): statistically significant decrease
- effect on the size of the tumors ([1]; oral OPN in drinking water started at the time of tumor injection (Day 0), up to 17 days, FIG. 1A): no significant effect
- most effective dose of OPN preparation ([1]; oral dosing experiments, 0.03, 0.12, 0.3 mg/ml, highest dose used): 0.3 mg/mL
- effect of treatment on mouse weight ([1]; oral, about 1.5 mg protein administered): nor is there any effect
- highest mean plasma levels (immunoreactive OPN peptides) [2]: ~5000 ng/mL
- time of peak antibody reactivity in plasma after feeding [2]: 1 to 4 h
